# Earlier results, collected in US11701338B2, “Use of gTso thal in manufacturing medicament for promotion of MS-275 to cross blood-brain barrier” (Northwest Institute of Plateau Biology, Chinese Academy of …, priority 2020, dated 2023).
# Settings: after oral or intravenous administration
compound,measurement,value
Nc1ccccc1NC(=O)c1ccc(CNC(=O)OCc2cccnc2)cc1 [MS-275],share of the dosage of MS-275 that crosses the BBB into the brain,around 15%
